# Reference: patent US20250084095A1, “Aminopyrimidine Derivatives as Cyclin-Dependent Kinase Inhibitors” (Accutar Biotechnology Inc., priority 2023, published 2025)
# System: Phospho-Rb (Ser807/811) in SW1573-CDK6 KO cells
# Assay: Phospho-Rb expression inhibition in SW1573-CDK6 KO cells quantified by in cell Western
# Format: cell-based
# Conditions: Homo sapiens, 24 hours, read-out: SW1573 CDK6 KO pRb IC50
# Protocol: Parental SW1573 cells were obtained from the American Type Culture Collection (ATCC). CDK4 or CDK6 gene in […] cells was knocked out using the CRISPR-Cas9 technology. First, gRNA complex of CDK4 or CDK6 was prepared with Alt-R CRISPR-Cas9 tracrRNA and crRNA CDK4 (5′-[…]-3′ (SEQ ID NO: 4)) or CDK6 (5′-[…]-3′ (SEQ ID NO. 5)) (IDT-Integrated DNA Technologies), and then ribonucleoprotein (RNP) complex of CDK4 or CDK6 was prepared with respective gRNA complex and Alt-R S.p. Cas9 Nuclease V3 (IDT-Integrated DNA Technologies). Next, 5×10^4/10 μL SWJ1573 cells were electroporated with the CDK4 or CDK6 RNP complex and Alt-R Cas9 Electroporation Enhancer using Neon Transfection System (Thermo Fisher). Cells were then plated in a 96-well plate to select single clones for validation of CDK4 or CDK6 knockout by western blot analysis.
# MCF7 cells were obtained from American Type Culture Collection (ATCC, HTB-22). SW1573-CDK6 KO and SW1573-CDK4 KO cells were generated by the CRISPR-Cas9 technology. All cells were plated in 96-well plates (VWR #10062-900, or Corning #3904) in 90 uL culture medium at a density of 20,000 cells/well in the respective growth medium containing 10% FBS and 1% Penicillin Streptomycin, and then incubated at 37° C. overnight. The following day, the test compound was administered to the cells by using 1000× compound stock solution prepared in DMSO at various concentrations. 1000× compound stock solution was first diluted in culturing medium to 10×, then 10 uL compound medium was added to each well in the cell plates. After administration of the compound, the cells were then incubated at 37° C. for 24 hours. Upon completion, the cells were washed with PBS briefly. 150 uL/well of 4% formaldehyde was added and the plates were incubated at room temperature for 20 mins. The cells were washed with PBS briefly, and permeabilized with 150 uL/well of ice cold 100% methanol for 10 mins. The cells were washed with PBS briefly and blocked with 100 uL/well LI-COR blocking buffer for 1 hr at room temperature with gentle shaking. The cells were incubated overnight at 4° C. with 50 uL primary antibody rabbit anti-Phospho-Rb (Ser807/811) (1: 500, Cell Signaling, #8516) and anti-Rb (1:200, Santa Cruz, sc-73598) diluted in Intercept Blocking Buffer (LI-COR, #927-60001) containing 0.1% Tween 20. The next day, the cells were washed with 200 uL PBS containing 0.1% Tween 20, 5×5 mins at room temperature with gentle shaking, and incubated with 50 uL secondary antibody, IRDye® 800CW Goat anti-Rabbit IgG (1:1000, LI-COR, #926-32211) and IRDye®680RD Goat anti-Mouse IgG (1:1000, LI-COR, #926-68070), in LI-COR blocking buffer with 0.2% Tween 20 for 1 hr at room temperature with gentle shaking. The cells were washed with 200 uL PBS containing 0.1% Tween 20, 5×5 mins at room temperature with gentle shaking. The cells were washed with PBS for 5 mins. 100 uL fresh PBS was added to each well and the plates were imaged on a LI-COR Odyssey CLX plate reader.
row,IC50,SMILES
1,≤ 40 nM,"Cc1c(C(C)(C)O)cnc2c(F)cc(-c3nc(N[C@@H]4C[C@H]5CO[C@H](O5)[C@H]4O)ncc3F)cc12 [Compound 256, (1S,3R,4S,5R)-3-((5-fluoro-4-(8-fluoro-3-(2-hydroxypropan-2-yl)-4-methylquinolin-6-yl)pyrimidin-2-yl)amino)-6,8-dioxabicyclo[3.2.1]octan-4-ol]"
2,≤ 40 nM,"Cc1c(C(C)(C)O)cnc2c(F)cc(-c3nc(N[C@@H]4C[C@H]5CO[C@H](O5)[C@H]4O)ncc3Cl)cc12 [Compound 257, (1S,3R,4S,5R)-3-((5-chloro-4-(8-fluoro-3-(2-hydroxypropan-2-yl)-4-methylquinolin-6-yl)pyrimidin-2-yl)amino)-6,8-dioxabicyclo[3.2.1]octan-4-ol]"
3,≤ 40 nM,"Cc1c(-c2nc(N[C@@H]3C[C@H]4CO[C@H](O4)[C@H]3O)ncc2Cl)sc2c(C(C)C)cnnc12 [Compound 259, (1S,3R,4S,5R)-3-((5-chloro-4-(4-isopropyl-7-methylthieno[3,2-c]pyridazin-6-yl)pyrimidin-2-yl)amino)-6,8-dioxabicyclo[3.2.1]octan-4-ol]"
4,40 to 150 nM,"COC(=O)N1CC[C@@H](c2nc3c(F)cc(-c4nc(N[C@@H]5C[C@H]6CO[C@H](O6)[C@H]5O)ncc4F)cc3n2C(C)C)C1 [Compound 265, methyl (R)-3-(4-fluoro-6-(5-fluoro-2-(((1S,3R,4S,5R)-4-hydroxy-6,8-dioxabicyclo[3.2.1]octan-3-yl)amino)pyrimidin-4-yl)-1-isopropyl-1H-benzo[d]imidazol-2-yl)pyrrolidine-1-carboxylate]"
5,40 to 150 nM,"CC(C)n1c([C@@H]2CCOC2)nc2c(F)cc(-c3nc(N[C@@H]4C[C@H]5CO[C@H](O5)[C@H]4O)ncc3Cl)cc21 [Compound 268, (1S,3R,4S,5R)-3-((5-chloro-4-(4-fluoro-1-isopropyl-2-((S)-tetrahydrofuran-3-yl)-1H-benzo[d]imidazol-6-yl)pyrimidin-2-yl)amino)-6,8-dioxabicyclo[3.2.1]octan-4-ol]"
6,150 to 1000 nM,"CC(C)n1c([C@H]2CCOC2)nc2c(F)cc(-c3nc(N[C@@H]4C[C@H]5CO[C@H](O5)[C@H]4O)ncc3F)cc21 [Compound 269, (1S,3R,4S,5R)-3-((5-fluoro-4-(4-fluoro-1-isopropyl-2-((R)-tetrahydrofuran-3-yl)-1H-benzo[d]imidazol-6-yl)pyrimidin-2-yl)amino)-6,8-dioxabicyclo[3.2.1]octan-4-ol]"
7,40 to 150 nM,"CC(C)n1c([C@@H]2CCOC2)nc2c(F)cc(-c3nc(N[C@@H]4C[C@H]5CO[C@H](O5)[C@H]4O)ncc3F)cc21 [Compound 270, (1S,3R,4S,5R)-3-((5-fluoro-4-(4-fluoro-1-isopropyl-2-((S)-tetrahydrofuran-3-yl)-1H-benzo[d]imidazol-6-yl)pyrimidin-2-yl)amino)-6,8-dioxabicyclo[3.2.1]octan-4-ol]"
8,40 to 150 nM,"Cc1c(-c2nc(N[C@@H]3C[C@H]4CO[C@H](O4)[C@H]3O)ncc2Cl)sc2c(Cl)c(C(C)(C)O)cnc12 [Compound 275, (1S,3R,4S,5R)-3-((5-chloro-4-(7-chloro-6-(2-hydroxypropan-2-yl)-3-methylthieno[3,2-b]pyridin-2-yl)pyrimidin-2-yl)amino)-6,8-dioxabicyclo[3.2.1]octan-4-ol]"
9,≤ 40 nM,"Cc1c(-c2nc(N[C@@H]3C[C@H]4CO[C@H](O4)[C@H]3O)ncc2F)sc2c(Cl)c(C(C)(C)O)cnc12 [Compound 276, (1S,3R,4S,5R)-3-((4-(7-chloro-6-(2-hydroxypropan-2-yl)-3-methylthieno[3,2-b]pyridin-2-yl)-5-fluoropyrimidin-2-yl)amino)-6,8-dioxabicyclo[3.2.1]octan-4-ol]"
10,≤ 40 nM,"Cc1c(-c2nc(N[C@@H]3C[C@H]4CO[C@H](O4)[C@H]3O)ncc2Cl)sc2c(C)c(C(C)(C)O)cnc12 [Compound 277, (1S,3R,4S,5R)-3-((5-chloro-4-(6-(2-hydroxypropan-2-yl)-3,7-dimethylthieno[3,2-b]pyridin-2-yl)pyrimidin-2-yl)amino)-6,8-dioxabicyclo[3.2.1]octan-4-ol]"
11,≤ 40 nM,"Cc1c(CN2CC[C@H](F)C2)n(C(C)C)c2cc(-c3nc(N[C@@H]4C[C@H]5CO[C@H](O5)[C@H]4O)ncc3F)ccc2c1=O [Compound 293, 7-(5-fluoro-2-(((1S,3R,4S,5R)-4-hydroxy-6,8-dioxabicyclo[3.2.1]octan-3-yl)amino)pyrimidin-4-yl)-2-(((S)-3-fluoropyrrolidin-1-yl)methyl)-1-isopropyl-3-methylquinolin-4(1H)-one]"
12,40 to 150 nM,"CC(C)n1c(N2C(=O)OC[C@@H]2C)nc2c(F)cc(-c3nc(N[C@@H]4C[C@H]5CO[C@H](O5)[C@H]4O)ncc3Cl)cc21 [Compound 298, (S)-3-(6-(5-chloro-2-(((1S,3R,4S,5R)-4-hydroxy-6,8-dioxabicyclo[3.2.1]octan-3-yl)amino)pyrimidin-4-yl)-4-fluoro-1-isopropyl-1H-benzo[d]imidazol-2-yl)-4-methyloxazolidin-2-one]"
